{
  "source": "patent US8653083B2",
  "about": "“Hedgehog pathway antagonists to treat disease” (The Johns Hopkins University, priority 2005, dated 2014)",
  "note": "Where a name gives a salt, the structure may show the parent alone.",
  "data": [
    {"test_system": "Sonic hedgehog (Shh) signaling", "test": "Cultured cell based Sonic hedgehog (Shh) signaling assay, luciferase reporter", "details": "not given", "procedure": "(§1) A library of drugs was previously tested in humans for agents that antagonize Hedgehog signaling. […] The assays used for the screen for Hh pathway antagonists proceeded essentially as described in reference 5. Briefly, each candidate compound was added at 10 uM to a cultured cell based Sonic hedgehog (Shh) signaling assay in high through-put format. This assay utilized cells with a stably integrated firefly luciferase reporter that is responsive to ShhN signaling. These cells also contain a stably integrated, constitutively expressed Renila luciferase gene that can be used for normalization of response to Shh, and used also to monitor cell health.", "units": {"IC50": "nM"}, "values": [
      {"smiles": "COc1cc2c(c(OC)c1OC)-c1ccc(=O)c(O)cc1[C@@H](NC(C)=O)CC2", "note": "[COLCHICEINE]", "IC50": "300 to 1000"},
      {"smiles": "C[C@@H]1C[C@@H]([C@H](O)CC2CC(=O)NC(=O)C2)C(=O)[C@@H](C)C1", "note": "[Cycloheximide]", "IC50": "300 to 1000"},
      {"smiles": "CC1=C2C[C@H]3[C@@H](CC=C4C[C@@H](O)CC[C@@]43C)[C@@H]2CC[C@]12O[C@@H]1C[C@H](C)CN[C@H]1[C@H]2C", "note": "[Cyclopamine]", "IC50": "300 to 1000"},
      {"smiles": "C=C(C)[C@H]1Cc2c(ccc3c2O[C@@H]2COc4cc(OC)c(OC)cc4[C@@H]2C3=O)O1", "note": "[ROTENONE]", "IC50": "1000 to 3000"}
    ]},
    {"test_system": "Sonic hedgehog (Shh) signaling", "test": "Cultured cell based Sonic hedgehog (Shh) signaling assay, luciferase reporter", "details": "Hh pathway inhibition; cells with ShhN-responsive firefly luciferase reporter, normalized to Renila luciferase; titration of 10 uM hits; read-out: IC50", "procedure": "as §1", "units": {"IC50": "nM"}, "values": [
      {"smiles": "CCC(C)n1ncn(-c2ccc(N3CCN(c4ccc(OCC5COC(Cn6cncn6)(c6ccc(Cl)cc6Cl)O5)cc4)CC3)cc2)c1=O", "note": "(racemic) [Itraconazole, (±)-cis-4-[4-[4-[4-[[2-(2,4-dichlorophenyl)-2-(1H-1,2,4-triazol-1-yl-methyl)-1,3-dioxolan-4-yl)methoxy]phenyl]-1-piperazinyl]phenyl]-2,4-dihydro-2-(1-methylpropyl)-3H-1,2,4-triazol-3-one]", "IC50": 300},
      {"smiles": "Nc1ncn([C@@H]2O[C@H](CO)[C@@H](O)[C@H]2O)c(=O)n1", "note": "[5-AZACYTIDINE]", "IC50": "1000 to 3000"},
      {"smiles": "CN(C)CCC=C1c2ccccc2CCc2ccccc21", "note": "[Amitriptyline]", "IC50": "1000 to 3000"},
      {"smiles": "COc1ccc(C[C@H]2NC[C@H](O)[C@H]2OC(C)=O)cc1", "note": "[Anisomycin]", "IC50": "< 100"},
      {"smiles": "C=C1C(=O)O[C@H]2C[C@@H]1C(OC(C)=O)C/C(C)=C/CC/C(C)=C/CC[C@@]2(C)O", "note": "(some centres unmarked) [CRASSIN ACETATE]", "IC50": "1000 to 3000"},
      {"smiles": "Cc1ccc2c(Cl)cc(Cl)c(O)c2n1", "note": "[Chlorquinaldol, 5,7-Dichloro-2-methyl-8-quinolinol]", "IC50": 3000},
      {"smiles": "CN1CCN(C2=Nc3ccccc3Sc3ccc(Cl)cc32)CC1", "note": "[Clothiapine]", "IC50": "1000 to 3000"},
      {"smiles": "C[C@H]1[C@@H](O)O[C@@H]2O[C@@]3(C)CC[C@H]4[C@H](C)CC[C@@H]1[C@@]24OO3", "note": "[DIHYDROARTEMISIMIN]", "IC50": "1000 to 3000"},
      {"smiles": "CCOC(=O)NC1=C(N2CC2)C(=O)C(NC(=O)OCC)=C(N2CC2)C1=O", "note": "[Diaziquone]", "IC50": "300 to 1000"},
      {"smiles": "CC(=O)Oc1ccc2c(c1)CC[C@@H]1[C@@H]2CC[C@]2(C)[C@@H](O)CC[C@@H]12", "note": "[ESTRADIOL ACETATE]", "IC50": "1000 to 3000"},
      {"smiles": "CC12CCC(CC1)C(C)(C)O2", "note": "[Eucalyptol]", "IC50": "300 to 1000"},
      {"smiles": "OCCOCCN1CCN(C(c2ccccc2)c2ccc(Cl)cc2)CC1", "note": "(centres unmarked) [Hydroxyzine]", "IC50": "300 to 1000"},
      {"smiles": "CN(C)CCCN1c2ccccc2CCc2ccccc21", "note": "[Imipramine]", "IC50": "1000 to 3000"},
      {"smiles": "CN1CCN(C2=Nc3ccccc3Oc3ccc(Cl)cc32)CC1", "note": "[LOXAPINE SUCCINATE]", "IC50": "100 to 300"},
      {"smiles": "CC[C@H]1/C=C/C=C/C[C@@H](C)[C@H](O)[C@@](C)(O)C(=O)[C@@H](C)[C@H](O)[C@@H](C)C(=O)[C@@H](C)[C@H](O)[C@@H](C)/C=C/C(=O)O[C@@H]2[C@H](C)[C@H](CC1)O[C@]1(CC[C@H](C)[C@H](C[C@@H](C)O)O1)[C@H]2C", "note": "[OLIGOMYCIN]", "IC50": "< 100"},
      {"smiles": "CC(COc1ccccc1)N(CCCl)Cc1ccccc1", "note": "(centres unmarked) [PHENOXYBENZAMINE HYDROCHLORIDE]", "IC50": "1000 to 3000"},
      {"smiles": "CN1CCC(=C2c3ccccc3Sc3ccccc32)CC1", "note": "[PIMETHIXENE MALEATE]", "IC50": "300 to 1000"},
      {"smiles": "CN(C)CCCN1c2ccccc2Sc2ccccc21", "note": "[PROMAZINE HYDROCHLORIDE]", "IC50": "1000 to 3000"},
      {"smiles": "CC(CN1c2ccccc2Sc2ccccc21)N(C)C", "note": "(centres unmarked) [PROMETHAZINE HYDROCHLORIDE]", "IC50": "300 to 1000"},
      {"smiles": "O=C(c1ccc(OCCN2CCCCC2)cc1)c1c(-c2ccc(O)cc2)sc2cc(O)ccc12", "note": "[Raloxifene hydrochloride]", "IC50": "1000 to 3000"},
      {"smiles": "CC[C@@H](C(=O)[C@@H](C)[C@@H](O)[C@H](C)[C@@H]1O[C@@H]([C@@H](CC)C(=O)O)CC[C@@H]1C)[C@H]1O[C@]2(C=C[C@@H](O)[C@]3(CC[C@@](C)([C@H]4CC[C@](O)(CC)[C@H](C)O4)O3)O2)[C@H](C)C[C@@H]1C", "note": "[SALINOMYCIN, SODIUM]", "IC50": "< 100"},
      {"smiles": "Nc1ccc(S(=O)(=O)Nc2cnc3ccccc3n2)cc1", "note": "[SULFAQUINOXALINE SODIUM]", "IC50": "300 to 1000"},
      {"smiles": "Cc1cc(NS(=O)(=O)c2ccc(N)cc2)nc(C)n1", "note": "[Sulfisomidine]", "IC50": "300 to 1000"},
      {"smiles": "CC(CN(C)C)CN1c2ccccc2CCc2ccccc21", "note": "(centres unmarked) [TRIMIPRAMINE MALEATE]", "IC50": "1000 to 3000"},
      {"smiles": "CC[C@]1(O)C[C@@H]2CN(CCc3c([nH]c4ccccc34)[C@@](C(=O)OC)(c3cc4c(cc3OC)N(C)[C@H]3[C@@](O)(C(=O)OC)[C@H](OC(C)=O)[C@]5(CC)C=CCN6CC[C@]43[C@@H]65)C2)C1", "note": "[Vinblastine sulfate]", "IC50": "300 to 1000"},
      {"smiles": "CC[C@]1(O)C[C@H]2CN(CCc3c([nH]c4ccccc34)[C@@](C(=O)OC)(c3cc4c(cc3OC)N(C=O)[C@H]3[C@@](O)(C(=O)OC)[C@H](OC(C)=O)[C@]5(CC)C=CCN6CC[C@]43[C@@H]65)C2)C1", "note": "[Vincristine sulfate]", "IC50": "< 100"},
      {"smiles": "CC[C@]1(O)C[C@@H]2CN(CCc3c([nH]c4ccccc34)[C@@](C(=O)OC)(c3cc4c(cc3OC)N(C)[C@H]3[C@@](O)(C(N)=O)[C@H](O)[C@]5(CC)C=CCN6CC[C@]43[C@@H]65)C2)C1", "note": "[Vindesine]", "IC50": "< 100"},
      {"smiles": "CCC1=C[C@@H]2CN(C1)Cc1c([nH]c3ccccc13)[C@@](C(=O)OC)(c1cc3c(cc1OC)N(C)[C@H]1[C@@](O)(C(=O)OC)[C@H](OC(C)=O)[C@]4(CC)C=CCN5CC[C@]31[C@@H]54)C2", "note": "[Vinorelbine tartrate]", "IC50": "< 100"},
      {"smiles": "c1cc(CN2CCCCC2)cc(OCCCNc2nc3ccccc3s2)c1", "note": "[Zolantidine]", "IC50": "1000 to 3000"}
    ]},
    {"test_system": "AT6.3 metastasis model", "test": "AT6.3 Dunning prostate cancer metastasis model, survival", "type": "in vivo, mice", "details": "cyclopamine comparator, dose not given", "values": [
      {"smiles": "CC1=C2C[C@H]3[C@@H](CC=C4C[C@@H](O)CC[C@@]43C)[C@@H]2CC[C@]12O[C@@H]1C[C@H](C)CN[C@H]1[C@H]2C", "note": "[Cyclopamine]", "survival": "extending survival"}
    ]},
    {"test_system": "22RV1 xenografts", "test": "22RV1 human prostate cancer xenografts in athymic mice, tumor growth", "type": "in vivo", "details": "itraconazole 37.5 mg/kg", "units": {"tumor volume change": "% volume"}, "values": [
      {"smiles": "CCC(C)n1ncn(-c2ccc(N3CCN(c4ccc(OCC5COC(Cn6cncn6)(c6ccc(Cl)cc6Cl)O5)cc4)CC3)cc2)c1=O", "note": "(racemic) [Itraconazole, (±)-cis-4-[4-[4-[4-[[2-(2,4-dichlorophenyl)-2-(1H-1,2,4-triazol-1-yl-methyl)-1,3-dioxolan-4-yl)methoxy]phenyl]-1-piperazinyl]phenyl]-2,4-dihydro-2-(1-methylpropyl)-3H-1,2,4-triazol-3-one]", "tumor volume change": "−100"}
    ]}
  ]
}
